Data on 32 compounds can be found in US8680113B2, “BMI-1 protein expression modulators” (PTC Therapeutics, Inc., priority 2008, dated 2014).

This experiment deals with Bmi-1. The experiment is described as follows: Sandwich ELISA Assay (Bmi-1 ELISA in HT-1080 cells). Format: cell-based, human. Here is the method:
Cell Seeding and Compound Treatment (Day 1):
HT-1080 cells were seeded at 8000 cells/well (50 uL) in 96-well tissue culture plates. After the cells become adherent (3-4 hours), 2× diluted stocks of compounds in 50 uL DMEM containing 1% DMSO (final DMSO concentration was 0.5%) were added and the plates were incubated at 37° C. under 5% CO2 for 40-48 hours
ELISA Plate First Antibody Preparation (Day 2):
The First Antibody (Millipore Mouse, monoclonal to mouse Bmi-1, clone F6, catalog #05-637) diluted to 2 ug/mL in PBS was added (100 uL) to each well of a Nunc MaxiSorp 96-well ELISA plate. The plate was covered with a plate seal and allowed to stand overnight.
Cell Lysate Preparation (Day 3):
Fresh 1× Lysis buffer was prepared on the day of the assay as follows: 1 mM EDTA, 150 mM NaCl, 0.5% Triton-X 100, 10 mM NaF, 20 mM B-Glycerophosphate, 1 mM DTT (in PBS, pH 7.2-7.4) and 1×HALT protease inhibitor cocktail (Pierce #78410).
1× Lysis Buffer (40 uL) was added to each well and the plate was shaken for 5-10 minutes on an orbital shaker to allow cell lysis, then Diluent (1% BSA in PBS in 0.5% NP40) (100 uL) was added to each well.
The Bmi-1 standard curve was prepared in Diluent at the following concentrations of protein: 8000, 4000, 2000, 1000, 500, 250, 125, 0 pg/mL The Bmi-1 Recombinant Protein Standard (Novus Biologicals PCGF4 Recombinant Protein (P01), catalog #H00000648-P01) used in the standard curve was stored at −80° C., and on first thaw, diluted to 10 ug/uL in Blocking Buffer (1% BSA in PBS; BSA: Fisher Scientific Catalog #1600-100) before being aliquoted and refrozen at −80° C. Aliquots can be kept at 4° C. and reused after first thaw, but only for 1-2 weeks. The Bmi-1 Recombinant Protein Standard contains a GST-fusion tag and thus will show up on western blots around 70 Kda.
The prepared ELISA plate was washed 3× with Wash Buffer (0.05% Tween-20 in PBS). The final wash was removed from the plate and the plate was blotted dry on paper towels. Blocking Buffer (300 uL) (1% BSA in PBS) was added per well. The plate was covered with a plate seal and incubated at room temperature for 1 hour. The blocked plate was washed 3× with Wash Buffer, the final wash was removed and the plate was blotted dry on paper towels. The previously prepared samples and standards were added (at 100 uL/well) and the plate was covered with a plate seal and incubated at 4° C. overnight.
The prepared ELISA plate was removed from 4° C., incubated at room temperature for 30 minutes, then washed and blotted dry as previously described for Day 3. The Second Antibody (Cell Signaling Rabbit anti-Bmi-1, Cat#2830) diluted to 1:600 in Blocking Buffer was added (100 uL) to each well, except as needed for background control wells. The plate was covered with a plate seal and incubated for 1.5 hrs at room temperature.
The ELISA plate was washed and blotted dry as previously described. The Third Antibody (Cell Signaling HRP conjugated anti-rabbit IgG (CellSignaling, Cat#:7074) diluted to 1:300 in Blocking Buffer was added (100 uL) to each well, except as needed for background control wells. The plate was incubated for 1 hr at room temperature.
The plate was washed and blotted dry as previously described, then prepared TMB substrate (TMB substrate kit, Pierce catalog #34021) (prepared by mixing kit reagents 1:1) (100 uL) was added per well. The plate was incubated for 20-30 minutes at room temperature in the dark, then Stop Solution (2 M sulfuric acid in water) (50 uL) was added per well. The plates were read at OD450 (experimental) and OD570 (reference).
In turn, “1-(3-{[4-(6-fluoro-2-methylimidazo[1,2-a]pyridin-3-yl)-1,3-thiazol-2-yl]amino}phenyl)ethanone [Cpd 238]” displayed an IC50 of less than 500 nM.

On to “1-(4-{[4-(imidazo[1,2-a]pyrimidin-3-yl)pyrimidin-2-yl]amino}phenyl)ethanone [Cpd 258]”, for which the IC50 is less than 500 nM. The same measure for `CCOc1ccc(Nc2nc(-c3c(C)nc4ncccn34)cs2)cc1` [Cpd 13, N-(4-ethoxyphenyl)-4-(2-methylimidazo[1,2-a]pyrimidin-3-yl)thiazol-2-amine]: less than 500 nM; for `COc1ccc(Nc2nc(-c3c(C)nc4cc(C)ccn34)cs2)cc1` [Cpd 17, 4-(2,7-dimethylimidazo[1,2-a]pyridin-3-yl)-N-(4-methoxyphenyl)thiazol-2-amine]: less than 500 nM. With `COc1cc(Cl)c(Nc2nc(-c3c(C)nc4ncccn34)cs2)c(Cl)c1` [Cpd 19, N-(2,6-dichloro-4-methoxyphenyl)-4-(2-methylimidazo[1,2-a]pyrimidin-3-yl)thiazol-2-amine], the IC50 lay within 500 to 1000 nM.

As for `COc1cc(F)c(Nc2nc(-c3c(C)nc4ncccn34)cs2)c(F)c1` [Cpd 20, N-(2,6-difluoro-4-methoxyphenyl)-4-(2-methylimidazo[1,2-a]pyrimidin-3-yl)thiazol-2-amine], the IC50 is 1000 to 3000 nM.

As for `Cc1cc(Br)c(Nc2nc(-c3c(C)nc4ncccn34)cs2)c(Br)c1` [Cpd 21, N-(2,6-dibromo-4-methylphenyl)-4-(2-methylimidazo[1,2-a]pyrimidin-3-yl)thiazol-2-amine], the IC50 was less than 500 nM. Take `Cc1nc2ncccn2c1-c1csc(Nc2c(Br)cc(Br)cc2Br)n1` [Cpd 22, 4-(2-methylimidazo[1,2-a]pyrimidin-3-yl)-N-(2,4,6-tribromophenyl)thiazol-2-amine]: the IC50 was less than 500 nM. The same measure for `COCCOc1cc(Br)c(Nc2nc(-c3c(C)nc4ncccn34)cs2)c(Br)c1` [Cpd 23, N-(2,6-dibromo-4-(2-methoxyethoxy)phenyl)-4-(2-methylimidazo[1,2-a]pyrimidin-3-yl)thiazol-2-amine]: 1000 to 3000 nM. As for `Cc1ccn2c(-c3csc(Nc4cccc(O)c4)n3)c(C)nc2c1` [Cpd 31, 3-{[4-(2,7-dimethylimidazo[1,2-a]pyridin-3-yl)-1,3-thiazol-2-yl]amino}phenol], the figure is less than 500 nM; as for `Cc1ccc(Nc2nc(-c3c(C)nc4cc(C)ccn34)cs2)cc1` [Cpd 32, 4-(2,7-dimethylimidazo[1,2-a]pyridin-3-yl)-N-(4-methylphenyl)-1,3-thiazol-2-amine], less than 500 nM.

Compound `CC(=O)c1ccc(Nc2nc(-c3c(C)nc4cc(C)ccn34)cs2)cc1` [Cpd 33, 1-(4-{[4-(2,7-dimethylimidazo[1,2-a]pyridin-3-yl)-1,3-thiazol-2-yl]amino}phenyl)ethanone] displayed an IC50 of less than 500 nM. As for `CC(=O)c1ccc(Nc2nc(-c3c(C)nc4ncccn34)cs2)cc1` [Cpd 34, 1-(4-{[4-(2-methylimidazo[1,2-a]pyrimidin-3-yl)-1,3-thiazol-2-yl]amino}phenyl)ethanone], the figure is less than 500 nM; as for `Cc1nc2ccccn2c1-c1csc(Nc2cccc(O)c2)n1` [Cpd 35, 3-{[4-(2-methylimidazo[1,2-a]pyridin-3-yl)-1,3-thiazol-2-yl]amino}phenol], less than 500 nM. The same measure for `Cc1nc2ccccn2c1-c1csc(Nc2ccc(O)cc2)n1` [Cpd 36, 4-{[4-(2-methylimidazo[1,2-a]pyridin-3-yl)-1,3-thiazol-2-yl]amino}phenol]: less than 500 nM; for `Cc1nc2ncccn2c1-c1csc(Nc2ccc3c(c2)OCO3)n1` [Cpd 37, N-(1,3-benzodioxol-5-yl)-4-(2-methylimidazo[1,2-a]pyrimidin-3-yl)-1,3-thiazol-2-amine]: less than 500 nM.

Take `Cc1nc2ncccn2c1-c1csc(Nc2c(Cl)cccc2Cl)n1` [Cpd 38, N-(2,6-dichlorophenyl)-4-(2-methylimidazo[1,2-a]pyrimidin-3-yl)-1,3-thiazol-2-amine]: the IC50 is less than 500 nM. As for `Cc1nc2ncccn2c1-c1csc(N(C)c2ccc3c(c2)OCO3)n1` [Cpd 40, N-(1,3-benzodioxol-5-yl)-N-methyl-4-(2-methylimidazo[1,2-a]pyrimidin-3-yl)-1,3-thiazol-2-amine], the figure is less than 500 nM. `Cc1nc2ccccn2c1-c1csc(Nc2ccc(N(C)C)cc2)n1` [Cpd 41, N,N-dimethyl-N′-[4-(2-methylimidazo[1,2-a]pyridin-3-yl)-1,3-thiazol-2-yl]benzene-1,4-diamine] showed an IC50 of less than 500 nM. The same measure for `Cc1nc2ncccn2c1-c1ccnc(Nc2ccc(N(C)C)cc2)n1` [Cpd 43, N,N-dimethyl-N′-[4-(2-methylimidazo[1,2-a]pyrimidin-3-yl)pyrimidin-2-yl]benzene-1,4-diamine]: less than 500 nM. The same measure for `COc1ccc(Nc2nc(-c3c(C)nc4ccccn34)cs2)cc1` [Cpd 44, N-(4-methoxyphenyl)-4-(2-methylimidazo[1,2-a]pyridin-3-yl)-1,3-thiazol-2-amine]: less than 500 nM; for `COc1ccc(Nc2nc(-c3c(C)nc4ncccn34)cs2)cc1F` [Cpd 45, N-(3-fluoro-4-methoxyphenyl)-4-(2-methylimidazo[1,2-a]pyrimidin-3-yl)-1,3-thiazol-2-amine]: less than 500 nM. For the compound `COc1ccc(Nc2nc(-c3c(C)nc4ncccn34)cs2)cc1Cl` [Cpd 46, N-(3-chloro-4-methoxyphenyl)-4-(2-methylimidazo[1,2-a]pyrimidin-3-yl)-1,3-thiazol-2-amine], the IC50 was less than 500 nM. As for `COc1ccc(N(C)c2nccc(-c3c(C)nc4ncccn34)n2)cc1` [Cpd 47, N-(4-methoxyphenyl)-N-methyl-4-(2-methylimidazo[1,2-a]pyrimidin-3-yl)pyrimidin-2-amine], the figure is less than 500 nM; as for `Cc1nc2ncccn2c1-c1csc(Nc2ccc(Br)cc2)n1` [Cpd 48, N-(4-bromophenyl)-4-(2-methylimidazo[1,2-a]pyrimidin-3-yl)-1,3-thiazol-2-amine], less than 500 nM. As for `COc1ccc(Nc2nc(-c3c(C)nc4ccccn34)cs2)cc1Cl` [Cpd 50, N-(3-chloro-4-methoxyphenyl)-4-(2-methylimidazo[1,2-a]pyridin-3-yl)-1,3-thiazol-2-amine], the figure is less than 500 nM; as for `COc1ccc(Nc2nc(-c3c(C)nc4ccccn34)cs2)cc1F` [Cpd 51, N-(3-fluoro-4-methoxyphenyl)-4-(2-methylimidazo[1,2-a]pyridin-3-yl)-1,3-thiazol-2-amine], less than 500 nM; as for `COCCOc1ccc(Nc2nc(-c3c(C)nc4ccccn34)cs2)cc1` [Cpd 52, N-[4-(2-methoxyethoxy)phenyl]-4-(2-methylimidazo[1,2-a]pyridin-3-yl)-1,3-thiazol-2-amine], less than 500 nM. As for `Cc1nc2ccccn2c1-c1csc(Nc2ccc(I)cc2)n1` [Cpd 53, N-(4-iodophenyl)-4-(2-methylimidazo[1,2-a]pyridin-3-yl)-1,3-thiazol-2-amine], the figure is less than 500 nM; as for `COCCOc1cc(Br)c(Nc2nc(-c3c(C)nc4ccccn34)cs2)c(Br)c1` [Cpd 54, N-[2,6-dibromo-4-(2-methoxyethoxy)phenyl]-4-(2-methylimidazo[1,2-a]pyridin-3-yl)-1,3-thiazol-2-amine], less than 500 nM. In turn, `CC(=O)c1ccc(Nc2nc(-c3c(C)nc4ccccn34)cs2)cc1` [Cpd 55, 1-(4-{[4-(2-methylimidazo[1,2-a]pyridin-3-yl)-1,3-thiazol-2-yl]amino}phenyl)ethanone] displayed an IC50 of less than 500 nM. Compound `Cc1nc2ccccn2c1-c1csc(Nc2ccc3c(c2)OCO3)n1` [Cpd 56, N-(1,3-benzodioxol-5-yl)-4-(2-methylimidazo[1,2-a]pyridin-3-yl)-1,3-thiazol-2-amine] displayed an IC50 of less than 500 nM.

The IC50 is the concentration needed to halve the response being measured. Read a high IC50 as lower potency.
